Source: patent US8168619B1, “Hormonal composition based on a progestational agent and an oestrogen and use thereof” (Laboratoire Theramex, priority 1999, dated 2012)
Read-outs that look alike come from different tables or passages of the source.

How the values were obtained:
endometrium [1] = conditions: cited from earlier work
ovulation [2] = conditions: cited from earlier work
[3] = Dose having a contraceptive effect (literature); format: in vivo; conditions: NEUMANN; reference progestative norgestrel (=1)
Excerpt: (§1) 2) Apart from the above, it would be reasonable to think that the doses claimed should be based on data from clinical pharmacology and/or clinical data previously published and commonly accepted. Now, if the doses defined as in the PLUNKETT patents are considered, it is easy to see that in most cases the active doses published already a long time ago, i.e. before the said patents were filed (NEUMANN, 1977) or more recently (KUHL, 1996), are very coherent but only rarely lie within the dose ranges claimed in the patents in the name of PLUNKETT (Table 2).

[4] = NEUMANN publication; cited from earlier work
ovulation [5] = test: Dose inhibiting ovulation (literature); format: in vivo; conditions: NEUMANN; reference progestative norgestrel (=1)
Excerpt: as §1

endometrial cells = test: Sequential estrogen-progestative therapy: histological appearance of endometrium biopsy; format: in vivo, women; conditions: for Number of mitoses (% of section in which mitoses were present), Glands: with 30 μg ethinyl estradiol, biopsy Day 17-20 of second cycle
Experimental: (§2) Menopausal women, whether naturally or as the result of surgery, were subjected to a sequential estrogen-progestative therapy. From Day 1 to Day 12 they received 30 μg of ethinyl estradiol and then, from Day 13 to Day 22, the same dose of ethinyl estradiol associated with different doses of nomegestrol acetate or chlormadinone acetate. The doses were as follows:
(§3) The number of women was between 2 and 11, depending on the group. There was then a therapeutic pause of 7 days followed by a second treatment cycle.
(§4) The parameters taken into account were as follows: • the interval before periods commenced after the therapy had been interrupted, following the first and second treatment cycles; • the histological appearance of the endometrium recovered in a biopsy carried out between Day 17 and Day 20 of the second cycle.

menopausal women = test: Sequential estrogen-progestative therapy: interval before periods after therapy is interrupted; format: in vivo; conditions: Day 13-22, with 30 μg ethinyl estradiol
Experimental: as §2, §3, §4

endometrium [6] = test: Dose inducing transformation of the endometrium (literature); format: in vivo; conditions: NEUMANN; reference progestative norgestrel (=1)
Excerpt: as §1

[7] = NEUMANN publication; cited from earlier work; remark: listed apart in the source

## CC(=O)O[C@]1(C(C)=O)CC[C@H]2[C@@H]3C=C(Cl)C4=CC(=O)[C@@H]5C[C@@H]5[C@]4(C)[C@H]3CC[C@@]21C [CIP acetate, Cyproterone acetate]
Endometrium [1]; KUHL
  Dose necessary to induce transformation of the endometrium (1): 2000 µg/day
Endometrium [1]; NEUMANN publication
  Dose necessary to induce transformation of the endometrium (1): 1000 µg/day
Ovulation [2]; KUHL
  Dose necessary to inhibit ovulation (3): 1000 µg/day
Ovulation [2]; NEUMANN publication
  Dose necessary to inhibit ovulation (3): 1000 µg/day
[3]
  Dose ratio, Contraception (4): 8.0
[4]
  Dose necessary to have a contraceptive effect (4): 2000 µg/day
Ovulation [5]
  Dose ratio, Ovulation (3): 10.0

## CC(=O)O[C@]1(C(C)=O)CC[C@H]2[C@@H]3C=C(Cl)C4=CC(=O)CC[C@]4(C)[C@H]3CC[C@@]21C [Chlormadinone acetate, chlormadinone acetate]
Endometrial cells; 0.1 mg/day
  Number of mitoses (% of section in which mitoses were present), Glands: 90%
Endometrial cells; 1 mg/day, sequential therapy with 30 μg ethinyl estradiol
  Mitosis in glandular cells: mitosis is still evident
Endometrial cells; 1 mg/day
  Number of mitoses (% of section in which mitoses were present), Glands: 50%
Endometrial cells; 2 mg/day
  Number of mitoses (% of section in which mitoses were present), Glands: 0%
Endometrial cells; 5 mg/day
  Number of mitoses (% of section in which mitoses were present), Glands: 0%
Endometrial cells; 10 mg/day
  Number of mitoses (% of section in which mitoses were present), Glands: 0%
Menopausal women; 0.1 mg/day
  Interval before the appearance of periods after the therapy is discontinued: -2.3 ± 0.5 days
Menopausal women; 0.5 mg/day
  Interval before the appearance of periods after the therapy is discontinued: 2.0 ± 0.6 days
Menopausal women; 1.0 mg/day
  Interval before the appearance of periods after the therapy is discontinued: 3.8 ± 0.3 days
Menopausal women; 2.0 mg/day
  Interval before the appearance of periods after the therapy is discontinued: 3.8 ± 0.3 days
Menopausal women; 5 mg/day
  Interval before the appearance of periods after the therapy is discontinued: 5.5 ± 1.5 days
Menopausal women; 10 mg/day
  Interval before the appearance of periods after the therapy is discontinued: 5.5 ± 0.5 days

## C#C[C@]1(O)CC[C@H]2[C@@H]3CCC4=CCCC[C@@H]4[C@H]3CC[C@@]21C [Lynoestrenol]
Endometrium [1]; NEUMANN publication
  Dose necessary to induce transformation of the endometrium (1): 5000 µg/day
Endometrium [6]
  Dose ratio, Endometrium (1): 4.2
[3]
  Dose ratio, Contraception (4): 10.0
[4]
  Dose necessary to have a contraceptive effect (4): 2500 µg/day

## CC(=O)O[C@]1(C(C)=O)CC[C@H]2[C@@H]3C[C@H](C)C4=CC(=O)CC[C@]4(C)[C@H]3CC[C@@]21C [MPA, medroxyprogesterone acetate]
Endometrium [1]; NEUMANN publication
  Dose necessary to induce transformation of the endometrium (1): 5500 µg/day
[3]
  Dose ratio, Contraception (4): 20.0
[4]
  Dose necessary to have a contraceptive effect (4): 5000 µg/day
[7]
  Dose necessary to produce an adequate delay in the onset of periods (2), Menstruation: 25000 µg/day

## C#C[C@]1(OC(C)=O)CC[C@H]2[C@@H]3CCC4=CC(=O)CC[C@@H]4[C@H]3CC[C@@]21C [Norethisterone acetate]
Endometrium [1]; NEUMANN publication
  Dose necessary to induce transformation of the endometrium (1): 4500 µg/day
Endometrium [6]
  Dose ratio, Endometrium (1): 3.8
Ovulation [2]; NEUMANN publication
  Dose necessary to inhibit ovulation (3): 800 µg/day
[3]
  Dose ratio, Contraception (4): 4.0
[4]
  Dose necessary to have a contraceptive effect (4): 1000 µg/day

## C#C[C@]1(O)CC[C@H]2[C@@H]3CCC4=CC(=O)CC[C@@H]4[C@H]3CC[C@@]21C [Norethisterone]
Endometrium [1]; KUHL
  Dose necessary to induce transformation of the endometrium (1): 10000 µg/day
Endometrium [1]; NEUMANN publication
  Dose necessary to induce transformation of the endometrium (1): 12500 µg/day
Ovulation [2]; KUHL
  Dose necessary to inhibit ovulation (3): 400 µg/day
Ovulation [2]; NEUMANN publication
  Dose necessary to inhibit ovulation (3): 800 µg/day
[3]
  Dose ratio, Contraception (4): 4.0
[4]
  Dose necessary to have a contraceptive effect (4): 1000 µg/day
[7]
  Dose necessary to produce an adequate delay in the onset of periods (2), Menstruation: 5000 µg/day

## C#C[C@]1(O)CC[C@H]2[C@@H]3CCC4=C(CCC(=O)C4)[C@H]3CC[C@@]21C [Norethynodrel]
Endometrium [1]; NEUMANN publication
  Dose necessary to induce transformation of the endometrium (1): 10000 µg/day
Endometrium [6]
  Dose ratio, Endometrium (1): 8.3
Ovulation [2]; NEUMANN publication
  Dose necessary to inhibit ovulation (3): 6000 µg/day
[3]
  Dose ratio, Contraception (4): 10.0
[4]
  Dose necessary to have a contraceptive effect (4): 2500 µg/day
[7]
  Dose necessary to produce an adequate delay in the onset of periods (2), Menstruation: 7500 µg/day
